Assay results as given in patent publication US9963467B2, “Boronic acid derivatives and therapeutic uses thereof” (Rempex Pharmaceuticals, Inc., priority 2014, dated 2018).
pKi: −log10 of the molar value.

Experiments:
[1] = tested on: KP1009 (CTX-M-15); assay: organism not typed; assay type: cell-based
[2] = Monomer content of pH adjusted aqueous solutions (LC-UV); assay type: physicochemical; conditions: 1 mg/mL aqueous salt solution, pH adjusted to 7.6 to 8, LC-UV
Method: Boronic acid containing compounds are known to undergo oligomerization. The presence of oligomers can greatly complicate drug development, as they represent new chemical species whose content must be controlled and qualified by testing in toxoicology studies. The monomer content of compounds was evaluated by adjusting aqueous solutions to physiological pH at various concentrations. The monomer content of pH adjusted solutions was measured using LC-UV. Test compounds were weighed out into a 1.5 mL Eppendorf tube. A solution of water was prepared in 1.00 mg/mL, 10.0 mg/mL or 100 mg/mL concentrations of the compound based on active fraction. A volume 20 uL was subtracted to allow room for addition of acid or base to adjust pH. The solution pH was measured. The pH was then adjusted through addition of acid or base as necessary until the reading was in the 7.6 to 8 range. A final pH measurement was made after ensuring all the compound was in solution. The solution was injected onto LC-UV in 0.1 uL to 5 uL volume within less than half an hour after the time the sample was prepared. Elution was done using 0.1% TFA in water for mobile phase A and 0.085% TFA in methanol for mobile phase B on an Excel ACE 5 Super C18 2.1×100 mm column at 0.6 ml/min flow rate with 9 min gradient, 3.9 minute hold at 90% B and 18 minute run time. The absorption was measured at 220, 254 and 300 nm with a 4 nm bandwidth.

[3] = tested on: KP1010 (SHV-12); assay: Tigemonam potentiation (MPC@4), KP1010; assay type: cell-based
[4] = tested on: EC1010 (CMY-6); assay: organism not typed; assay type: cell-based
[5] = target: OXA-48 (Klebsiella pneumoniae, UniProt Q6XEC0); assay: Ki, nitrocefin cleavage by purified enzyme, OXA-48; assay type: biochemical; conditions: nitrocefin reporter substrate; read-out: Ki (OXA-48, NCF)
Chain of OXA-48 (Q6XEC0 23-265, looked up, species assumed): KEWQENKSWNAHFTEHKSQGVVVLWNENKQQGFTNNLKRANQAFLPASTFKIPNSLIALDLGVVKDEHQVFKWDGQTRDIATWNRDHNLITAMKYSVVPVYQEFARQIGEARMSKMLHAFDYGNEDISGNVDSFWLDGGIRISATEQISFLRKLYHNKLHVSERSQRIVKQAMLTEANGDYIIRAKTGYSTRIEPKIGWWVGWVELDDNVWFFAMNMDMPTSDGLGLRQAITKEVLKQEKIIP
How it was run: (§1)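 Steps: enzyme plus inhibitor dilutions in reaction buffer; 10 min at room temperature; add nitrocefin; read absorbance at 490 nm each 10 sec for 10 min.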

[6] = tested on: ec308 (SHV-5); assay: Tigemonam potentiation (MPC@4), ec308; assay type: cell-based
[7] = tested on: KP1009 (CTX-M-15); assay: Tigemonam potentiation (MPC@4), KP1009; assay type: cell-based; conditions: BLI with tigemonam at 4 μg/mL
[8] = tested on: EC1010 (CMY-6); assay: Tigemonam potentiation (MPC@4), EC1010; assay type: cell-based; conditions: BLI with tigemonam at 4 μg/mL
[9] = target: P99 (Enterobacter cloacae, UniProt P05364); assay: Ki, nitrocefin cleavage by purified enzyme, P99; assay type: biochemical; conditions: nitrocefin reporter substrate; read-out: Ki (P99, NCF)
Chain of P99 (P05364 21-381): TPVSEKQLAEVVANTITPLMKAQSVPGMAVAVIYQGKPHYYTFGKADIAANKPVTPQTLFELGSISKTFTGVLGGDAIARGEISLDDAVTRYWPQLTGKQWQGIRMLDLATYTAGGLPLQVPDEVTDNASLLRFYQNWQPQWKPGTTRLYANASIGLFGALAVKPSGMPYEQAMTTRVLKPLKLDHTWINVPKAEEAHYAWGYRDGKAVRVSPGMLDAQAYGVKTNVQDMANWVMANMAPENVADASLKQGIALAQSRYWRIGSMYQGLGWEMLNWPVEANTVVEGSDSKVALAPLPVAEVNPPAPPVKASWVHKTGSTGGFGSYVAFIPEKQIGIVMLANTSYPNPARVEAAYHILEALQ
How it was run: as §1

[10] = target: KPC-2 (Klebsiella pneumoniae, UniProt Q9F663); assay: Ki, nitrocefin cleavage by purified enzyme, KPC-2; assay type: biochemical; conditions: nitrocefin reporter substrate; read-out: Ki (KPC-2, NCF)
Chain of KPC-2 (Q9F663 25-293, looked up, species assumed): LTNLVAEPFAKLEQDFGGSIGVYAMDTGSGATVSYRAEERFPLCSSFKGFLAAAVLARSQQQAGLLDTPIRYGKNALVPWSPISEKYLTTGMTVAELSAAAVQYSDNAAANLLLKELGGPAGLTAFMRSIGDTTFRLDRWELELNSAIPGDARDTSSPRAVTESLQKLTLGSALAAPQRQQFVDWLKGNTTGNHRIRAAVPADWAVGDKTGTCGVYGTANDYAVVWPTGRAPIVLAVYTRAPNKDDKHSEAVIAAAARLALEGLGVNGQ
How it was run: as §1

[11] = tested on: KP1004 (KPC-2); assay: Biapenem potentiation (MPC@1), KP1004; conditions: BLI with biapenem at 1 μg/mL
[12] = tested on: KP1004 (KPC-2); assay: Aztreonam potentiation (MPC@4), KP1004; assay type: cell-based; conditions: BLI with aztreonam at 4 μg/mL
[13] = tested on: ECL1002; assay: Tigemonam potentiation (MPC@4), ECL1002; assay type: cell-based; conditions: BLI with tigemonam at 4 μg/mL
[14] = tested on: KP1005 (CTX-M-14); assay: Tigemonam potentiation (MPC@4), KP1005; assay type: cell-based; conditions: BLI with tigemonam at 4 μg/mL
[15] = target: Pa AmpC (Pseudomonas aeruginosa, UniProt P24735); assay: Ki, nitrocefin cleavage by purified enzyme, Pa AmpC; assay type: biochemical; conditions: nitrocefin reporter substrate; read-out: Ki (Pa AmpC, NCF)
Chain of Pa AmpC (P24735 27-397): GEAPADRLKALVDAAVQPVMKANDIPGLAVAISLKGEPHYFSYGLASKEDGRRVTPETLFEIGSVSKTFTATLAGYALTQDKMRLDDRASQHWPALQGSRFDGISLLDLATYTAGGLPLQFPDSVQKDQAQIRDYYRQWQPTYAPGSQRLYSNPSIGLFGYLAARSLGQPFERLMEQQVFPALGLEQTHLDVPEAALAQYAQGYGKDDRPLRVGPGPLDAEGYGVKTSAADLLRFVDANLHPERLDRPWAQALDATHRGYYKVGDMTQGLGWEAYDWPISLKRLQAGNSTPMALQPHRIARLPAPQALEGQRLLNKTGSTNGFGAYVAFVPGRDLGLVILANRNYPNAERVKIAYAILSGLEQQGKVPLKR
How it was run: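 Purified enzyme was preincubated with inhibitor at a range of concentrations in reaction buffer for 10 min at room temperature. Nitrocefin was then added as reporter substrate and its cleavage followed at 490 nm every 10 sec over 10 min; Ki was derived spectrophotometrically.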

[16] = tested on: ECL1002; assay: Aztreonam potentiation (MPC@4), ECL1002; assay type: cell-based; conditions: BLI with aztreonam at 4 μg/mL
[17] = tested on: KP1005 (CTX-M-14); assay: Aztreonam potentiation (MPC@4), KP1005; assay type: cell-based; conditions: BLI with aztreonam at 4 μg/mL
[18] = tested on: ec302 (TEM-10); assay: Tigemonam potentiation (MPC@4), ec302; assay type: cell-based
[19] = target: CTX-M-14 (Escherichia coli, UniProt Q9L5C7); assay: Ki, nitrocefin cleavage by purified enzyme, CTX-M-14; assay type: biochemical; conditions: nitrocefin reporter substrate; read-out: Ki (CTX-M-14, NCF)
Chain of CTX-M-14 (Q9L5C7 29-291): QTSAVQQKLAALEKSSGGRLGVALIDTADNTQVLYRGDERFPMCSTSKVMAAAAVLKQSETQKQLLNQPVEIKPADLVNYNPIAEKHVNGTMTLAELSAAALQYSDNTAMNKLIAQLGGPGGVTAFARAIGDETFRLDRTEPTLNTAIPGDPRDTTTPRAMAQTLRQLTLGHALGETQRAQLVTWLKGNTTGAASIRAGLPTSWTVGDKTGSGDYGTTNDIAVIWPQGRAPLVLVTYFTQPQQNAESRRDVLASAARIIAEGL
How it was run: as §1

[20] = tested on: KP1086 (OXA-48); assay: Biapenem potentiation (MPC@1), KP1086; conditions: BLI with biapenem at 1 μg/mL
[21] = target: SHV-12 (Klebsiella pneumoniae, UniProt P0AD64, E235K/G234S/L31Q); assay: Ki, nitrocefin cleavage by purified enzyme, SHV-12; assay type: biochemical; conditions: nitrocefin reporter substrate; read-out: Ki (SHV-12, NCF)
Chain of SHV-12 (P0AD64 22-286 L31Q/G234S/E235K): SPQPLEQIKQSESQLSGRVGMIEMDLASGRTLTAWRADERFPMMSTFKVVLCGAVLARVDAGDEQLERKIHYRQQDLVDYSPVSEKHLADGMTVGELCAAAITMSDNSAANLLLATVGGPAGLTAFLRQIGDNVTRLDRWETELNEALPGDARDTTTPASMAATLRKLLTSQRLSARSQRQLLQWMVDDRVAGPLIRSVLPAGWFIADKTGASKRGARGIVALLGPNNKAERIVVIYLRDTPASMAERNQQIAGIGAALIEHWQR
How it was run: as §1

[22] = tested on: ec302 (TEM-10); assay: Aztreonam potentiation (MPC@4), ec302; assay type: cell-based; conditions: BLI with aztreonam at 4 μg/mL

Compound	AZT MPC4 CTX-M-15 KP1009 [1]	% Monomer in 1 mg/mL salt solution [2]	TIG MPC4 SHV-12 KP1010 [3]	AZT MPC4 CMY-6 EC1010 [4]	pKi [5]	TIG MPC4 SHV-5 ec308 [6]	TIG MPC4 CTX-M-15 KP1009 [7]	TIG MPC4 CMY-6 EC1010 [8]	pKi [9]	pKi [10]	BPM MPC1 KP1004 KPC-2 [11]	AZT MPC4 KPC-2 KP1004 [12]	TIG MPC4 ECL1002 [13]	TIG MPC4 CTX-M-14 KP1005 [14]	pKi [15]	AZT MPC4 ECL1002 [16]	AZT MPC4 CTX-M-14 KP1005 [17]	TIG MPC4 TEM-10 ec302 [18]	pKi [19]	BPM MPC1 OXA-48 KP1086 [20]	also measured
CSCC(=O)N[C@H]1Cc2ccc(Sc3nnc(N)s3)c(C(=O)O)c2OB1O [Compound 21, (R)-7-(5-amino-1,3,4-thiadiazol-2-ylthio)-2-hydroxy-3-(2-(methylthio)acetamido)-3,4-dihydro-2H-benzo[e][1,2]oxaborinine-8-carboxylic acid]	Y (key: X: MIC of less than 1 ng/mL; Y: MIC of 1 μg/mL to 10 μg/mL; Z: MIC of greater than 10 μg/mL)	98.1%	X (key: X: MIC of less than 1 μg/mL; Y: MIC of 1 μg/mL to 10 μg/mL; Z: MIC of greater than 10 μg/mL)	Y (key: X: MIC of less than 1 ng/mL; Y: MIC of 1 μg/mL to 10 μg/mL; Z: MIC of greater than 10 μg/mL)	> 9.00	X (key: X: MIC of less than 1 μg/mL; Y: MIC of 1 μg/mL to 10 μg/mL; Z: MIC of greater than 10 μg/mL)	Y (MIC of 1 μg/mL to 10 μg/mL)	Y (MIC of 1 μg/mL to 10 μg/mL)	< 8.00	< 8.00	Y (MIC of 1 μg/mL to 10 μg/mL)	Y (MIC of 1 μg/mL to 10 μg/mL)	Y (MIC of 1 μg/mL to 10 μg/mL)	Y (MIC of 1 μg/mL to 10 μg/mL)	< 8.00	Y (MIC of 1 μg/mL to 10 μg/mL)	Y (MIC of 1 μg/mL to 10 μg/mL)	Y (key: X: MIC of less than 1 ng/mL; Y: MIC of 1 μg/mL to 10 μg/mL; Z: MIC of greater than 10 μg/mL)	> 9.00	Z (MIC of greater than 10 μg/mL)	pKi [21]: > 9.00; AZT MPC4 TEM-10 ec302 [22]: Y (MIC of 1 μg/mL to 10 μg/mL)
CSCC(=O)N[C@H]1Cc2ccc(SCC3CCNCC3)c(C(=O)O)c2OB1O [Compound 24, (R)-2-hydroxy-3-(2-(methylthio)acetamido)-7-(piperidin-4-ylmethylthio)-3,4-dihydro-2H-benzo[e][1,2]oxaborinine-8-carboxylic acid]	Y (key: X: MIC of less than 1 ng/mL; Y: MIC of 1 μg/mL to 10 μg/mL; Z: MIC of greater than 10 μg/mL)	98.3%	X (key: X: MIC of less than 1 μg/mL; Y: MIC of 1 μg/mL to 10 μg/mL; Z: MIC of greater than 10 μg/mL)	Y (key: X: MIC of less than 1 ng/mL; Y: MIC of 1 μg/mL to 10 μg/mL; Z: MIC of greater than 10 μg/mL)	> 9.00	Y (key: X: MIC of less than 1 ng/mL; Y: MIC of 1 μg/mL to 10 μg/mL; Z: MIC of greater than 10 μg/mL)	Y (MIC of 1 μg/mL to 10 μg/mL)	Y (MIC of 1 μg/mL to 10 μg/mL)	< 8.00	< 8.00	X (MIC of less than 1 μg/mL)	Y (MIC of 1 μg/mL to 10 μg/mL)	Y (MIC of 1 μg/mL to 10 μg/mL)	Y (MIC of 1 μg/mL to 10 μg/mL)	< 8.00	Y (MIC of 1 μg/mL to 10 μg/mL)	Y (MIC of 1 μg/mL to 10 μg/mL)	Z (key: X: MIC of less than 1 ng/mL; Y: MIC of 1 μg/mL to 10 μg/mL; Z: MIC of greater than 10 μg/mL)	> 9.00	Z (MIC of greater than 10 μg/mL)	pKi [21]: 8.00 to 9.00; AZT MPC4 TEM-10 ec302 [22]: Y (MIC of 1 μg/mL to 10 μg/mL)
CSCC(=O)N[C@@H]1Cc2ccc(F)c(C(=O)O)c2OB1O [Compound 31, (S)-7-fluoro-2-hydroxy-3-(2-(methylthio)acetamido)-3,4-dihydro-2H-benzo[e][1,2]oxaborinine-8-carboxylic acid]	Y (key: X: MIC of less than 1 ng/mL; Y: MIC of 1 μg/mL to 10 μg/mL; Z: MIC of greater than 10 μg/mL)	99.7%	X (key: X: MIC of less than 1 μg/mL; Y: MIC of 1 μg/mL to 10 μg/mL; Z: MIC of greater than 10 μg/mL)	Y (key: X: MIC of less than 1 ng/mL; Y: MIC of 1 μg/mL to 10 μg/mL; Z: MIC of greater than 10 μg/mL)	8.00 to 9.00	X (key: X: MIC of less than 1 μg/mL; Y: MIC of 1 μg/mL to 10 μg/mL; Z: MIC of greater than 10 μg/mL)	Y (MIC of 1 μg/mL to 10 μg/mL)	Y (MIC of 1 μg/mL to 10 μg/mL)	< 8.00	< 8.00	X (MIC of less than 1 μg/mL)	Y (MIC of 1 μg/mL to 10 μg/mL)	X (MIC of less than 1 μg/mL)	Y (MIC of 1 μg/mL to 10 μg/mL)	< 8.00	Y (MIC of 1 μg/mL to 10 μg/mL)	Y (MIC of 1 μg/mL to 10 μg/mL)	Z (key: X: MIC of less than 1 ng/mL; Y: MIC of 1 μg/mL to 10 μg/mL; Z: MIC of greater than 10 μg/mL)	8.00 to 9.00	Z (MIC of greater than 10 μg/mL)	pKi [21]: > 9.00; AZT MPC4 TEM-10 ec302 [22]: Y (MIC of 1 μg/mL to 10 μg/mL)
